This is an account of results in patent US11535611B2, “Pyrazolo[3,4-B]pyridines and imidazo[1,5-B]pyridazines as PDE1 inhibitors” (H. Lundbeck A/S, priority 2017, dated 2022).

Holding throughout (type): biochemical
For experiment [1], the target named is PDE1A (Homo sapiens (Human), UniProt P54750). Nature of the experiment: PDE1 inhibition assay, PDE1A. As to conditions: for inhibition at 10 µM: @ 10 μM compound; for pIC50: 15 nM tritium labelled cAMP, 1 hr at room temperature, SPA beads; for inhibition at 1 µM: @ 1 μM compound. On the procedure:
(§1) PDE1A, PDE1B and PDE1C assays were performed as follows: the assays were performed in 60 μL samples containing a fixed amount of the PDE1 enzyme (sufficient to convert 20-25% of the cyclic nucleotide substrate), a buffer (50 mM HEPES (4-(2-hydroxyethyl)-1-piperazineethanesulfonic acid) pH 7.6; 10 mM MgCl2; 0.02% Tween20), 0.1 mg/ml BSA (bovine serum albumin), 15 nM tritium labelled cAMP and varying amounts of inhibitors. Reactions were initiated by addition of the cyclic nucleotide substrate, and reactions were allowed to proceed for 1 hr at room temperature before being terminated through mixing with 20 μL (0.2 mg) yttrium silicate SPA beads (PerkinElmer). The beads were allowed to settle for 1 hour in the dark before the plates were counted in a Wallac 1450 Microbeta counter. The measured signals were converted to activity relative to an uninhibited control (100%) and IC50 values were calculated using XIFit (model 205, IDBS).

The target in experiment [2] is PDE1B (Homo sapiens (Human), UniProt Q01064). Nature of the experiment: PDE1 inhibition assay, PDE1B. As to conditions: 15 nM tritium labelled cAMP, 1 hr at room temperature, SPA beads; read-out: PDE1 B, IC50. How it is done: as §1
The target in experiment [3] is PDE1C (Homo sapiens (Human), UniProt Q14123). The experiment is described as follows: PDE1 inhibition assay, PDE1C. As to conditions: for pIC50: 15 nM tritium labelled cAMP, 1 hr at room temperature, SPA beads, read-out: PDE1 C, IC50; for inhibition at 10 µM: @ 10 μM compound, read-out: PDE1 C, % inhibition @ 10 μM; for inhibition at 1 µM: @ 1 μM compound, read-out: PDE1 C, % inhibition @ 1 μM. On the procedure:
as §1

pIC50: −log10 of the molar value.

As a reminder, the inhibition is the change of the read-out against control, counted positive when it falls. Usually pIC50 stands for the IC50 on a negative log10 scale, so that one unit is a factor of ten.

Chain of PDE1B (Q01064 whole entry): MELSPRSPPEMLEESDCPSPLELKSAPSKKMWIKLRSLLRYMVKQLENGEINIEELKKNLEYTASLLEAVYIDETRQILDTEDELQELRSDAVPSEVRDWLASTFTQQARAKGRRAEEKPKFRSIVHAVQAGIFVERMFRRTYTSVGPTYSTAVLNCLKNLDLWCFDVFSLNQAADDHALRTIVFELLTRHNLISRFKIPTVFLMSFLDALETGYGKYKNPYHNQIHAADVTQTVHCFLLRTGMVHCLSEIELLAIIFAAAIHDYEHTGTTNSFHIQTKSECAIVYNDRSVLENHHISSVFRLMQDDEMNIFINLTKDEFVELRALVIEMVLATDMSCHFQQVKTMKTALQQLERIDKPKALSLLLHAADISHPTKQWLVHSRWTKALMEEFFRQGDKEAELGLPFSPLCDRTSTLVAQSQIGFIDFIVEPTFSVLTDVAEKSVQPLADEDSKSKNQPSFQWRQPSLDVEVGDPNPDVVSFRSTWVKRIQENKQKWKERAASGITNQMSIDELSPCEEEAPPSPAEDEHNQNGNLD
Chain of PDE1A (P54750 whole entry): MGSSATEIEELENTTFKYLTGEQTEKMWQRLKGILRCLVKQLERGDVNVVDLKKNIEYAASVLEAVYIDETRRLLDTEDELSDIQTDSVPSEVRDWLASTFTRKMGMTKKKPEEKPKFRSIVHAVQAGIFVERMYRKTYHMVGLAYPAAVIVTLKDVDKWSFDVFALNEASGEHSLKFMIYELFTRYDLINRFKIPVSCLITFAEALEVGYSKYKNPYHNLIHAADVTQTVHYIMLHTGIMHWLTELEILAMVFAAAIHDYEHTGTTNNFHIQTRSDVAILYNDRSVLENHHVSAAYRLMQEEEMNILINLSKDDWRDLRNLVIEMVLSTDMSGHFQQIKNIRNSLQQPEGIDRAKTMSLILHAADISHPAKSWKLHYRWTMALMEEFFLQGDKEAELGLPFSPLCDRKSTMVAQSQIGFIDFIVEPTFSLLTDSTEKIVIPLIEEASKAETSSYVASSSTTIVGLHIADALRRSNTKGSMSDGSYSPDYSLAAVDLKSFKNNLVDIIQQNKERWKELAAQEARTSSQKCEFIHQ
Chain of PDE1C (Q14123 whole entry): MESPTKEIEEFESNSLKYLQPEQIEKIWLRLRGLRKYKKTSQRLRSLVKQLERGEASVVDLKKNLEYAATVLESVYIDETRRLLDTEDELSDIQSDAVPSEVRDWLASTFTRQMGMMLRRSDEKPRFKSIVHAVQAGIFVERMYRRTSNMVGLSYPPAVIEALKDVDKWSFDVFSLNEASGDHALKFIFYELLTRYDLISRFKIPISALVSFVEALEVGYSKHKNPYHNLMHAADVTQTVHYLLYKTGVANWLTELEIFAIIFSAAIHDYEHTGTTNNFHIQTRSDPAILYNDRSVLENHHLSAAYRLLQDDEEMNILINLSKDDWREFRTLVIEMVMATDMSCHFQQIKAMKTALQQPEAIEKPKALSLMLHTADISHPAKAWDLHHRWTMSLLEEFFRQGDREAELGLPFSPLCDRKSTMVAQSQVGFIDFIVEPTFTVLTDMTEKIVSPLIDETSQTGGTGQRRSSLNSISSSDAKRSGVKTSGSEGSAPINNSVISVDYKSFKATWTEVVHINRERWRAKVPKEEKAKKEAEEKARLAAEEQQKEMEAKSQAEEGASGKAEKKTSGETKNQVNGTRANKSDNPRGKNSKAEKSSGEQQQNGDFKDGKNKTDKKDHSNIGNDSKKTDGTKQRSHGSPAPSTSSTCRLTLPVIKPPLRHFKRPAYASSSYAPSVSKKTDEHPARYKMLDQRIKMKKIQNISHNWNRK

In experiment [1], `CCOc1ncc(C#N)cc1-c1cc(N[C@@H]2CCOC2)c2c(cnn2C(C)C)n1` [Example 55, 6-ethoxy-5-[1-isopropyl-7-[[(3R)-tetrahydrofuran-3-yl]amino]pyrazolo[4,3-b]pyridin-5-yl]pyridine-3-carbonitrile] gave an inhibition at 10 µM of 69%. Besides, the negative logarithm of the IC50 (pIC50) in experiment [2] was 5.86; in experiment [3], 5.60.

`COc1ncccc1-c1nc2c(C)nn(C(C)C)c2cc1C` [Example 61, 1-isopropyl-5-(2-methoxy-3-pyridyl)-3,6-dimethyl-pyrazolo[4,3-b]pyridine]: the negative-log IC50 (pIC50) in experiment [1] was 6.54; in experiment [2], 7.08; in experiment [3], 6.63.

Consider `CC(C)n1ncc2nc(-c3cnn4ccccc34)cc(N[C@@H]3CCOC3)c21` [Example 35, 1-isopropyl-5-pyrazolo[1,5-a]pyridin-3-yl-N-[(3R)-tetrahydrofuran-3-yl]pyrazolo[4,3-b]pyridin-7-amine], for which the values for the negative-log IC50 (pIC50) in experiment [1], in experiment [2] and in experiment [3] were 5.79, 6.22 and 5.67, respectively.

As to `CCNc1cc(-c2cccnc2OCC)nc2c(C)nn(C(C)C)c12` [Example 66, 5-(2-ethoxy-3-pyridyl)-N-ethyl-1-isopropyl-3-methyl-pyrazolo[4,3-b]pyridin-7-amine], the pIC50 in experiment [1] is 7.22; in experiment [2], 8.30; in experiment [3], 6.79.

Consider `CCOc1ncncc1-c1cc(NC2CCOC2)c2c(cnn2C(C)C)n1` (stereo in doubt) [Example 50, 5-(4-ethoxypyrimidin-5-yl)-1-isopropyl-N-[(3R)-tetrahydrofuran-3-yl]pyrazolo[4,3-b]pyridin-7-amine], for which the pIC50 was 5.52 in experiment [1], 6.04 in experiment [2] and 5.74 in experiment [3].

With `COCc1ncccc1-c1cc(N[C@@H]2CCOC2)c2c(cnn2C(C)C)n1` [Example 58, 1-isopropyl-5-[2-(methoxymethyl)-3-pyridyl]-N-[(3R)-tetrahydrofuran-3-yl]pyrazolo[4,3-b]pyridin-7-amine], the inhibition at 10 µM in experiment [1] worked out at 52%; in experiment [3], 31%. Besides, in experiment [2], the negative-log IC50 (pIC50) is 5.66.

Turning to `CCOc1ncccc1-c1cc(NC2CCC(OC)C2)c2c(cnn2C)n1` (centres unmarked) [Example 88, 5-(2-ethoxy-3-pyridyl)-N-(3-methoxycyclopentyl)-1-methyl-pyrazolo[4,3-b]pyridin-7-amine], the inhibition at 1 µM is 16% in experiment [1] and 47% in experiment [3]. In experiment [2], the pIC50 was 6.51.

In the case of `CCOc1ncccc1-c1cc(NC)c2c(cnn2C(C)C)n1` [Example 13, 5-(2-ethoxy-3-pyridyl)-1-isopropyl-N-methyl-pyrazolo[4,3-b]pyridin-7-amine], the negative-log IC50 (pIC50) in experiment [1] was 5.99; in experiment [2], 7.07; in experiment [3], 5.98.

On to `CCOc1ncccc1-c1ccn2c(C(C)CC)nc(C)c2n1` (racemic) [Example 76, (±)-2-(2-ethoxy-3-pyridyl)-8-methyl-6-sec-butyl-imidazo[1,5-a]pyrimidine], for which the pIC50 in experiment [1] was 7.21; in experiment [2], 8.05; in experiment [3], 6.95.

As for `CCOc1ncccc1-c1nc2c(C)nc(C(C)C)n2cc1C` [Example 71, 2-(2-ethoxy-3-pyridyl)-6-isopropyl-3,8-dimethyl-imidazo[1,5-a]pyrimidine], the pIC50 in experiment [1] is 7.13; in experiment [2], 7.77; in experiment [3], 7.00.

Take `COc1cc(-c2cc(N[C@@H]3CCOC3)c3c(cnn3C(C)C)n2)c(OC)cn1` [Example 38, 5-(2,5-dimethoxy-4-pyridyl)-1-isopropyl-N-[(3R)-tetrahydrofuran-3-yl]pyrazolo[4,3-b]pyridin-7-amine]: the values for the pIC50 in experiment [1], in experiment [2] and in experiment [3] were 5.94, 6.51 and 6.25, respectively.

Consider `COc1ccncc1-c1cc(N[C@@H]2CCOC2)c2c(cnn2C(C)C)n1` [Example 31, 1-isopropyl-5-(4-methoxy-3-pyridyl)-N-[(3R)-tetrahydrofuran-3-yl]pyrazolo[4,3-b]pyridin-7-amine], for which the inhibition at 10 µM in experiment [1] stood at 63%; in experiment [3] it was 76%. The negative logarithm of the IC50 (pIC50) in experiment [2] was 5.91.

On to `COc1cccnc1-c1cc(N[C@@H]2CCOC2)c2c(cnn2C(C)C)n1` [Example 40, 1-isopropyl-5-(3-methoxy-2-pyridyl)-N-[(3R)-tetrahydrofuran-3-yl]pyrazolo[4,3-b]pyridin-7-amine], for which the values for the inhibition at 10 µM in experiment [1] and in experiment [3] were 81% and 26%, respectively. Besides, the negative logarithm of the IC50 (pIC50) in experiment [2] was 5.67.

Regarding `CCOc1ncccc1-c1cc(N2CCCC2)c2c(cnn2C2CCOC2)n1` (racemic) [Example 3, (±)-5-(2-ethoxy-3-pyridyl)-7-pyrrolidin-1-yl-1-tetrahydrofuran-3-yl-pyrazolo[4,3-b]pyridine], the inhibition at 1 µM was 27% in experiment [1] and 29% in experiment [3]. The pIC50 in experiment [2] was 6.26.

As for `CCOc1ncccc1-c1ccn2c(C3CCC3)nc(C)c2n1` [Example 73, 6-cyclobutyl-2-(2-ethoxy-3-pyridyl)-8-methyl-imidazo[1,5-a]pyrimidine], the negative logarithm of the IC50 (pIC50) in experiment [1] was 5.81; in experiment [2], 6.53; in experiment [3], 5.68.

As for `CCOc1ncccc1-c1ccn2c(C3CCOC3)nc(C)c2n1` (racemic) [Example 81, (±)-2-(2-ethoxy-3-pyridyl)-8-methyl-6-tetrahydrofuran-3-yl-imidazo[1,5-a]pyrimidine], the pIC50 in experiment [1] was 5.95; in experiment [2], 6.84; in experiment [3], 5.79.

For the compound `CCCn1ncc2nc(-c3cccnc3OCC)cc(N[C@@H]3CCOC3)c21` (single isomer, unassigned) [Example 23, 5-(2-ethoxy-3-pyridyl)-1-propyl-N-[tetrahydrofuran-3-yl]pyrazolo[4,3-b]pyridin-7-amine], the figures for the negative logarithm of the IC50 (pIC50) in experiment [1], in experiment [2] and in experiment [3] were 6.32, 6.77 and 5.59, respectively.

For `CC(C)n1ncc2nc(-c3ccccc3)cc(N[C@@H]3CCOC3)c21` [Example 27, 1-isopropyl-5-phenyl-N-[(3R)-tetrahydrofuran-3-yl]pyrazolo[4,3-b]pyridin-7-amine], the negative-log IC50 (pIC50) in experiment [1] was 5.70; in experiment [2], 6.16; in experiment [3], 5.45.

For `COc1ncc(C)cc1-c1cc(N[C@@H]2CCOC2)c2c(cnn2C(C)C)n1` [Example 52, 1-isopropyl-5-(2-methoxy-5-methyl-3-pyridyl)-N-[(3R)-tetrahydrofuran-3-yl]pyrazolo[4,3-b]pyridin-7-amine], testing at 10 µM in experiment [1] gave an inhibition of 56%. Further, the negative logarithm of the IC50 (pIC50) was 5.88 in experiment [2] and 5.74 in experiment [3].

Turning to `CCOc1ncccc1-c1cc(N[C@H]2CCOC2)c2c(cnn2C(C)C)n1` (single isomer, unassigned) [Example 21, 5-(2-ethoxy-3-pyridyl)-1-isopropyl-N-[tetrahydrofuran-3-yl]pyrazolo[4,3-b]pyridin-7-amine], the pIC50 in experiment [2] is 7.32.

Turning to `CCOc1ncccc1-c1cc(N[C@H]2CCOC2)c2c(cnn2C(C)C)n1` (single isomer, unassigned) [Example 22, 5-(2-ethoxy-3-pyridyl)-1-isopropyl-N-[tetrahydrofuran-3-yl]pyrazolo[4,3-b]pyridin-7-amine], the pIC50 in experiment [2] was 7.49.
